Experimental data as given in article PMC5420417, “Inhibitory Effect of Chemical Constituents Isolated from Artemisia iwayomogi on Polyol Pathway and Simultaneous Quantification of Major Bioactive Compounds” (BioMed Research International, 2017).
Like-named read-outs stand apart in the source and are kept apart here.

Key:
AR = system: AR; design: method as in PMID 21092751, PMID 18379080; settings: previous literature ref 24, 38; cited from earlier work
[1] = system: advanced glycation endproducts (AGEs) formation; assay: AGEs formation inhibitory activity, bovine serum albumin with fructose and glucose, fluorescence; assay type: biochemical; settings: for IC50: ND = not detected
Procedure: Inhibition of AGEs formation was determined by an assay containing bovine serum albumin (10 mg/mL) in 50 mM phosphate buffer (pH 7.4) with 0.02% sodium azide, to which 0.4 M fructose and glucose was added. The assay mixture was incubated at 60°C for 2 days. After incubating, the reaction was measured on Fluorescence in a 96-black-well plate (excitation wavelength 350 nm, emission wavelength 450 nm). Aminoguaidine (AG) was used as a positive control.
(§1) Inhibition (%): (Ac − As/Ac) × 100. In AR inhibition activity, Ac is absorbance of control and As is absorbance of samples. In AGEs formation inhibition activity, Ac is fluorescence of control and As is fluorescence of samples. […] IC50 values were calculated from the least-squares regression line of the log of concentration plotted against residual activity. All assays were performed in triplicate. Data was presented as mean ± standard deviation (SD).

aldose reductase (AR) = target: T1, aldose reductase (AR) (Rattus norvegicus, UniProt P07943); assay: Aldose reductase (AR) inhibitory activity, rat lens homogenate, decrease of β-NADPH absorption at 340 nm; assay type: biochemical, Sprague-Dawley rats
T1 construct: The rat lenses were homogenized in 0.1 M sodium phosphate buffer (pH 6.2) and centrifuged; from tissue; host or cells: lens of Sprague-Dawley rats (homogenate supernatant)
Procedure: Rat lenses (one lens per 0.5 mL sodium buffer) were obtained from Sprague-Dawley rats (weighing 250~280 g). The rat lenses were homogenized in 0.1 M sodium phosphate buffer (pH 6.2) and centrifuged at 10,000 rpm (4°C, 20 min). After centrifugation, the supernatant was used as an enzyme. AR activity was spectrophotometrically determined by measuring the decrease in the absorption of β-NADPH at 340 nm for a 4 min period using DL-glyceraldehydes as substrates. The assay mixture contained 1.6 mM β-NADPH, 0.1 M potassium phosphate buffer (pH 7.0), AR homogenate, 4 M ammonium sulfate, 0.025 M DL-glyceraldehyde, and the sample in 100% DMSO. The total volume of the assay mixture was 0.3 mL and the reaction was performed in a 96-well plate. 3,3′-Tetramethylene glutaric acid (TMG), a typical AR inhibitor, was used as a positive control.
as §1

[2] = BSA 10 mg/mL, 0.4 M fructose and glucose, 60°C, 2 days, mean ± SD
[3] = rat lens AR, DL-glyceraldehyde substrate, mean ± SD, triplicate, read-out: IC50 AR

| Structure (SMILES) | IC50 [1, 2] [µM] | IC50 (aldose reductase (AR); [3]) [µM] | further results |
| --- | --- | --- | --- |
| O=C(O)/C=C/c1ccc(O)c(O)c1 [caffeic acid] |  |  | inhibitory activity on AR (in words) (AR): no inhibitory activity |
| COc1cc2ccc(=O)oc2cc1O [Compound 1, scopoletin] | 20.7 ± 1.38 | 90.4 ± 1.91 | inhibition of AR (in words) (aldose reductase (AR); rat lens AR): minor inhibition |
| COC(=O)C1(O)CC(OC(=O)/C=C/c2ccc(O)c(O)c2)C(O)C(OC(=O)/C=C/c2ccc(O)c(O)c2)C1 (centres unmarked) [Compound 16, 3,5-di-O-caffeoylquinic acid methyl ester] | 44.5 ± 4.86 | 1.48 ± 0.04 |  |
| C[C@@H]1O[C@@H](OC[C@H]2O[C@@H](Oc3c(-c4ccc(O)c(O)c4)oc4cc(O)cc(O)c4c3=O)[C@H](O)[C@@H](O)[C@@H]2O)[C@H](O)[C@H](O)[C@H]1O [Compound 11, rutin] | 129 ± 4.01 | 12.5 ± 0.2 |  |
| COc1cc(O)c2c(=O)cc(-c3ccc(O)cc3)oc2c1 [Compound 3, genkwanin] | 312 ± 11.3 | > 200 |  |
| CC1(C)C(O)CCC2(C)C3CCC4CC3(CCC12)CC4(O)COC1OC(CO)C(O)C(O)C1O (centres unmarked) [Compound 18, suavioside A] |  | > 200 |  |
| N=C(N)NN [AG, Aminoguaidine, reference compound] | 415 ± 5.96 |  | IC50 AGEs formation ([1]; BSA 10 mg/mL, 0.4 M fructose and glucose, 60°C, 2 days, extract and fractions, mean ± SD): 45.85 ± 7.17^∗∗ μg/ml |
| O=c1c(O[C@@H]2O[C@H](CO)[C@@H](O)[C@H](O)[C@H]2O)c(-c2ccc(O)c(O)c2)oc2cc(O)cc(O)c12 [Compound 9, isoquercetin] | 67.4 ± 9.95 | 3.32 ± 0.21 |  |
| O=C(/C=C/c1ccc(O)c(O)c1)OC1CC(O)(C(=O)O)CC(OC(=O)/C=C/c2ccc(O)c(O)c2)C1O (centres unmarked) [Compound 15, 3,5-di-O-caffeoylquinic acid] | 31.8 ± 0.56 |  |  |
| O=C(/C=C/c1ccc(O)c(O)c1)OC1CC(O)(C(=O)O)CC(O)C1OC(=O)/C=C/c1ccc(O)c(O)c1 (centres unmarked) [Compound 14, 3,4-di-O-caffeoylquinic acid] | 124 ± 4.25 | 1.9 ± 0.01 |  |
| COc1cc(-c2cc(=O)c3c(O)c(OC)c(O)cc3o2)ccc1O [Compound 5, jaceosidin] | 170 ± 16.4 | 111 ± 9.89 |  |
| COc1cc(OC2OC(CO)C(O)C(O)C2O)cc(O)c1C(C)=O [Compound 20, 2,4-dihydroxy-6-methoxyacetophenone 4-O-β-D-glucopyranoside] | 1049 ± 0.11 | > 200 | inhibition of AGEs formation (in words) ([1]; BSA/fructose/glucose): only slight inhibition |
| COc1c(O)cc2oc(-c3ccc(O)c(O)c3)c(OC3OC(CO)C(O)C(O)C3O)c(=O)c2c1O (centres unmarked) [Compound 8, patuletin-3-O-glucoside] | 197 ± 11 | 3.19 ± 0.1 |  |
| CC1(C)C(O)CCC2(C)C3CCC4CC3(CCC12)CC4(O)COC1OC(CO)C(O)C(O)C1O (centres unmarked) [Compound 17, iwayoside A] |  | > 200 |  |
| O=C(/C=C/c1ccc(O)c(O)c1)OC1CC(O)(C(=O)O)CC(O)C1O (centres unmarked) [Compound 12, 3-O-caffeoylquinic acid] | 176 ± 5.77 | 4.54 ± 0.16 |  |
| COc1cc2ccc(=O)oc2cc1O[C@@H]1O[C@H](CO)[C@@H](O)[C@H](O)[C@H]1O [Compound 2, scopolin] | 82.4 ± 1.52 | 131.37 ± 0.12 |  |
| CC1(C)C(=O)CCC2(C)C3CCC4CC3(CCC12)CC4(O)COC1OC(CO)C(O)C(O)C1O (centres unmarked) [Compound 19, sugeroside] |  | > 200 |  |
| O=C(O)CC1(CC(=O)O)CCCC1 [TMG, 3,3′-Tetramethylene glutaric acid, reference compound] |  | 6.58 ± 0.19 | IC50 AR (aldose reductase (AR); rat lens AR, DL-glyceraldehyde substrate, extract and fractions, mean ± SD, triplicate): 1.22 ± 0.03^∗ μg/ml |
| O=C(/C=C/c1ccc(O)c(O)c1)OC1CC(OC(=O)/C=C/c2ccc(O)c(O)c2)(C(=O)O)CC(O)C1O (centres unmarked) [Compound 13, 1,3-di-O-caffeoylquinic acid] | 24.9 ± 1.86 | 0.22 ± 0.01 | inhibition of AR (in words) (aldose reductase (AR); rat lens AR): strongest inhibition |
| COc1c(O)cc2oc(-c3ccc(O)cc3)cc(=O)c2c1O [Compound 4, hispidulin] | 185.6 ± 0.2 |  | IC50 (aldose reductase (AR)): 2.93 ± 0.11 µM |
